The target of the test is T1, Bcl-2 protein (Recombinant Human Bcl-2 Protein) (Homo sapiens, UniProt P10415).
T1 construct: purchased Novus NBP2-34889
The test is described as follows: Binding evaluation of mixture library compounds to Bcl-2 using AS-MS (affinity selection mass spectrometry). The procedure, abridged: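 Pooled library of ~1200 compounds ([…] each, final) incubated with recombinant human Bcl-2 (20 μM final) in Tris-HCl pH 7.4, NaCl, Tween-20, DTT buffer, dark, 23° C., 1 h. Bound fraction recovered by SEC spin column, organic extraction, reversed-phase LC/MS. ASMS Ratio (%) = (A−C)/B×100 versus protein-free standard and SEC blank.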

T1 sequence (P10415 whole entry): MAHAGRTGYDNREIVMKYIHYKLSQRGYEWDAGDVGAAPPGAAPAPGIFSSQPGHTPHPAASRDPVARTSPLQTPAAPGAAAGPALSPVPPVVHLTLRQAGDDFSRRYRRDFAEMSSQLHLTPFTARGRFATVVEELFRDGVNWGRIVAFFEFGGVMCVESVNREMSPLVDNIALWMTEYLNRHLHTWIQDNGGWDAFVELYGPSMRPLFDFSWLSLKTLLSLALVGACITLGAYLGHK

For `CCOc1cncc(-c2ccc(CN3CCN(c4ccc(C(=O)NS(=O)(=O)C(C)(C)C)cc4)CC3)c(CC)c2)c1` [B2L050-01], the “ASMS ratio (%)” value (n = 1) came out at 0.0% and the “ASMS ratio (%)” value (n = 2) was 0.0%.
For `CCOc1cccc(-c2ccc(CN3CCN(c4ccc(C(=O)NS(=O)(=O)C(C)(C)C)cc4)CC3)cc2F)c1` [B2L051-01, N-tert-Butylsulfonyl-4-[4-[[4-(3-ethoxyphenyl)-3-fluorophenyl]methyl]piperazin-1-yl]benzamide], the “ASMS ratio (%)” value by setting is: (n = 1) 0.0%; (n = 2) 0.0%.
As for `CCOc1cncc(-c2ccc(CN3CCN(c4ccc(C(=O)NS(=O)(=O)C(C)(C)C)cc4)CC3)cc2F)c1` [B2L052-01], the “ASMS ratio (%)” value runs as follows: (n = 1) 2.7%; (n = 2) 1.0%.
In the same order, the values of `CCOc1cccc(-c2ccc(CN3CCN(c4ccc(C(=O)NS(=O)(=O)C(C)(C)C)cc4)CC3)c(OC)c2)c1` [B2L053-01] are 0.0% and 0.0%.
In the same order, the values of `CCOc1cncc(-c2ccc(CN3CCN(c4ccc(C(=O)NS(=O)(=O)C(C)(C)C)cc4)CC3)c(OC)c2)c1` [B2L054-01] are 0.0% and 0.0%.
In the same order, the values of `CCOc1cccc(-c2cc(CN3CCN(c4ccc(C(=O)NS(=O)(=O)C(C)(C)C)cc4)CC3)cc(OCC)c2)c1` [B2L055-01, N-tert-Butylsulfonyl-4-[4-[[3-ethoxy-5-(3-ethoxyphenyl)phenyl]methyl]piperazin-1-yl]benzamide] are 0.0% and 0.0%.
`CCOc1cncc(-c2cc(CN3CCN(c4ccc(C(=O)NS(=O)(=O)C(C)(C)C)cc4)CC3)cc(OCC)c2)c1` [B2L056-01]: the “ASMS ratio (%)” value (n = 1) is given as 0.0% and the “ASMS ratio (%)” value (n = 2) was 0.0%.
`CCOc1cccc(-c2cc(CN3CCN(c4ccc(C(=O)NS(=O)(=O)C(C)(C)C)cc4)CC3)cc(OC(C)C)c2)c1` [B2L057-01, N-tert-Butylsulfonyl-4-[4-[[3-(3-ethoxyphenyl)-5-propan-2-yloxyphenyl]methyl]piperazin-1-yl]benzamide]: the “ASMS ratio (%)” value is, setting by setting: (n = 1) 0.0%; (n = 2) 0.0%.
Regarding `CCOc1cncc(-c2cc(CN3CCN(c4ccc(C(=O)NS(=O)(=O)C(C)(C)C)cc4)CC3)cc(OC(C)C)c2)c1` [B2L058-01], the “ASMS ratio (%)” value reads like this: (n = 1) 0.0%; (n = 2) 0.0%.
Take `CCOc1cccc(-c2cc(OC)c(CN3CCN(c4ccc(C(=O)NS(=O)(=O)C(C)(C)C)cc4)CC3)c(OC)c2)c1` [B2L059-01, N-tert-Butylsulfonyl-4-[4-[[4-(3-ethoxyphenyl)-2,6-dimethoxyphenyl]methyl]piperazin-1-yl]benzamide]: the “ASMS ratio (%)” value stood at 0.0% (n = 1) and 0.0% (n = 2).
On to `CCOc1cncc(-c2cc(OC)c(CN3CCN(c4ccc(C(=O)NS(=O)(=O)C(C)(C)C)cc4)CC3)c(OC)c2)c1` [B2L060-01, N-tert-Butylsulfonyl-4-[4-[[4-(5-ethoxypyridin-3-yl)-2,6-dimethoxyphenyl]methyl]piperazin-1-yl]benzamide], for which the “ASMS ratio (%)” value (n = 2) was 0.0%.
On to `CCOc1cccc(-c2cc(CN3CCN(c4ccc(C(=O)NS(=O)(=O)C(C)(C)C)cc4)CC3)cc(C(F)(F)F)c2)c1` [B2L061-01, N-tert-Butylsulfonyl-4-[4-[[3-(3-ethoxyphenyl)-5-(trifluoromethyl)phenyl]methyl]piperazin-1-yl]benzamide], for which the “ASMS ratio (%)” value reads like this: (n = 1) 4.6%; (n = 2) −11.1%.
The like results for `CCOc1cncc(-c2cc(CN3CCN(c4ccc(C(=O)NS(=O)(=O)C(C)(C)C)cc4)CC3)cc(C(F)(F)F)c2)c1` [B2L062-01, N-tert-Butylsulfonyl-4-[4-[[3-(5-ethoxypyridin-3-yl)-5-(trifluoromethyl)phenyl]methyl]piperazin-1-yl]benzamide] were, in that order, 0.0% and 0.0%.
`CCOc1cccc(-c2cc(CN3CCN(c4ccc(C(=O)NS(=O)(=O)C(C)(C)C)cc4)CC3)cc(OC(F)(F)F)c2)c1` [B2L063-01, N-tert-Butylsulfonyl-4-[4-[[3-(3-ethoxyphenyl)-5-(trifluoromethoxy)phenyl]methyl]piperazin-1-yl]benzamide]: the “ASMS ratio (%)” value was 0.0% (n = 1) and 0.0% (n = 2).
In the case of `CCOc1cncc(-c2cc(CN3CCN(c4ccc(C(=O)NS(=O)(=O)C(C)(C)C)cc4)CC3)cc(OC(F)(F)F)c2)c1` [B2L064-01, N-tert-Butylsulfonyl-4-[4-[[3-(5-ethoxypyridin-3-yl)-5-(trifluoromethoxy)phenyl]methyl]piperazin-1-yl]benzamide], the “ASMS ratio (%)” value (n = 1) worked out at 0.0% and the “ASMS ratio (%)” value (n = 2) is on record as 0.0%.
Take `CCOc1cccc(-c2csc(CN3CCN(c4ccc(C(=O)NS(=O)(=O)C(C)(C)C)cc4)CC3)c2)c1` [B2L067-01, N-tert-Butylsulfonyl-4-[4-[[4-(3-ethoxyphenyl)thiophen-2-yl]methyl]piperazin-1-yl]benzamide]: the “ASMS ratio (%)” value (n = 1) turned out to be 0.0% and the “ASMS ratio (%)” value (n = 2) is reported as 0.0%.
`CCOc1cncc(-c2csc(CN3CCN(c4ccc(C(=O)NS(=O)(=O)C(C)(C)C)cc4)CC3)c2)c1` [B2L068-01, N-tert-Butylsulfonyl-4-[4-[[4-(5-ethoxypyridin-3-yl)thiophen-2-yl]methyl]piperazin-1-yl]benzamide]: the “ASMS ratio (%)” value runs as follows: (n = 1) 0.0%; (n = 2) 0.0%.
In the case of `CCOc1cccc(C#Cc2ccccc2CN2CCN(c3ccc(C(=O)NS(=O)(=O)C(C)(C)C)cc3)CC2)c1` [B2L069-01, N-tert-Butylsulfonyl-4-[4-[[2-[2-(3-ethoxyphenyl)ethynyl]phenyl]methyl]piperazin-1-yl]benzamide], the “ASMS ratio (%)” value reads like this: (n = 1) 0.0%; (n = 2) 0.0%.
Take `CCOc1cncc(C#Cc2ccccc2CN2CCN(c3ccc(C(=O)NS(=O)(=O)C(C)(C)C)cc3)CC2)c1` [B2L070-01, N-tert-Butylsulfonyl-4-[4-[[2-[2-(5-ethoxypyridin-3-yl)ethynyl]phenyl]methyl]piperazin-1-yl]benzamide]: the “ASMS ratio (%)” value reads like this: (n = 1) 4.9%; (n = 2) −4.2%.
In the same order, the values of `CCOc1cccc(-c2ccccc2CN2CCN(c3ccc(C(=O)NS(=O)(=O)C(C)(C)C)nn3)CC2)c1` [B2L071-01, N-tert-Butylsulfonyl-6-[4-[[2-(3-ethoxyphenyl)phenyl]methyl]piperazin-1-yl]pyridazine-3-carboxamide] are 1.2% and 0.0%.
Regarding `CCOc1cncc(-c2ccccc2CN2CCN(c3ccc(C(=O)NS(=O)(=O)C(C)(C)C)nn3)CC2)c1` [B2L072-01, N-tert-Butylsulfonyl-6-[4-[[2-(5-ethoxypyridin-3-yl)phenyl]methyl]piperazin-1-yl]pyridazine-3-carboxamide], the “ASMS ratio (%)” value is, setting by setting: (n = 1) −10.7%; (n = 2) 8.3%.
In the same order, the values of `CCOc1cccc(-c2ccc(CN3CCN(c4ccc(C(=O)NS(=O)(=O)C(C)(C)C)nn4)CC3)cc2C)c1` [B2L073-01, N-tert-Butylsulfonyl-6-[4-[[4-(3-ethoxyphenyl)-3-methylphenyl]methyl]piperazin-1-yl]pyridazine-3-carboxamide] are 0.0% and 0.0%.
The like results for `CCOc1cncc(-c2ccc(CN3CCN(c4ccc(C(=O)NS(=O)(=O)C(C)(C)C)nn4)CC3)cc2C)c1` [B2L074-01, N-tert-Butylsulfonyl-6-[4-[[4-(5-ethoxypyridin-3-yl)-3-methylphenyl]methyl]piperazin-1-yl]pyridazine-3-carboxamide] were, in that order, −1.0% and 1.4%.
The like results for `CCOc1cccc(-c2ccc(CN3CCN(c4ccc(C(=O)NS(=O)(=O)C(C)(C)C)nn4)CC3)c(CC)c2)c1` [B2L075-01, N-tert-Butylsulfonyl-6-[4-[[4-(3-ethoxyphenyl)-2-ethylphenyl]methyl]piperazin-1-yl]pyridazine-3-carboxamide] were, in that order, 0.0% and 33.9%.
As to `CCOc1cncc(-c2ccc(CN3CCN(c4ccc(C(=O)NS(=O)(=O)C(C)(C)C)nn4)CC3)c(CC)c2)c1` [B2L076-01, N-tert-Butylsulfonyl-6-[4-[[4-(5-ethoxypyridin-3-yl)-2-ethylphenyl]methyl]piperazin-1-yl]pyridazine-3-carboxamide], the “ASMS ratio (%)” value runs as follows: (n = 1) 1.8%; (n = 2) −0.3%.
In the case of `CCOc1cccc(-c2ccc(CN3CCN(c4ccc(C(=O)NS(=O)(=O)C(C)(C)C)nn4)CC3)cc2F)c1` [B2L077-01, N-tert-Butylsulfonyl-6-[4-[[4-(3-ethoxyphenyl)-3-fluorophenyl]methyl]piperazin-1-yl]pyridazine-3-carboxamide], the “ASMS ratio (%)” value was determined as 0.0% (n = 1) and 0.0% (n = 2).
Take `CCOc1cncc(-c2ccc(CN3CCN(c4ccc(C(=O)NS(=O)(=O)C(C)(C)C)nn4)CC3)cc2F)c1` [B2L078-01]: the “ASMS ratio (%)” value (n = 1) is recorded as 1.1% and the “ASMS ratio (%)” value (n = 2) is −0.7%.
Take `CCOc1cccc(-c2cc(CN3CCN(c4ccc(C(=O)NS(=O)(=O)C(C)(C)C)nn4)CC3)cc(OCC)c2)c1` [B2L081-01, N-tert-Butylsulfonyl-6-[4-[[3-ethoxy-5-(3-ethoxyphenyl)phenyl]methyl]piperazin-1-yl]pyridazine-3-carboxamide]: the “ASMS ratio (%)” value reads like this: (n = 1) 0.0%; (n = 2) 0.0%.
On to `CCOc1cncc(-c2cc(CN3CCN(c4ccc(C(=O)NS(=O)(=O)C(C)(C)C)nn4)CC3)cc(OCC)c2)c1` [B2L082-01, N-tert-Butylsulfonyl-6-[4-[[3-ethoxy-5-(5-ethoxypyridin-3-yl)phenyl]methyl]piperazin-1-yl]pyridazine-3-carboxamide], for which the “ASMS ratio (%)” value is, setting by setting: (n = 1) 2.6%; (n = 2) −1.2%.

The values above are taken from patent publication US20240132431A1, “METHOD FOR ALKYLATING ACIDIC FUNCTIONAL GROUP” (Chugai Seiyaku Kabushiki Kaisha, priority 2021, published 2024).
